Measured values from the NIST ThermoML archive (doi:10.1021/acs.jced.7b00494).

Experiment: mn = molality of the nth substance listed, in mol/kg
Settings: 99.6 kPa, Liquid; for kinematic viscosity: Capillary tube (Ostwald / Ubbelohde) method; for mass density: Vibrating tube method

CNC(C)=O [N-methylacetamide] + [Ca+2].[Cl-].[Cl-]
Settings | kinematic viscosity, 308.15 K [m2/s] | kinematic viscosity, 313.15 K [m2/s] | kinematic viscosity, 318.15 K [m2/s] | kinematic viscosity, 323.15 K [m2/s] | kinematic viscosity, 328.15 K [m2/s] | mass density, 308.15 K [kg/m3] | mass density, 313.15 K [kg/m3] | mass density, 318.15 K [kg/m3] | mass density, 323.15 K [kg/m3] | mass density, 328.15 K [kg/m3]
m2 = 0 | 3.79e-06 | 3.35e-06 | 2.99e-06 | 2.68e-06 | 2.42e-06 | 945.85 | 941.63 | 937.44 | 933.24 | 929.07
m2 = 0.00398 | 3.81e-06 | 3.38e-06 | 3.02e-06 | 2.69e-06 | 2.44e-06 | 946.1 | 941.91 | 937.73 | 933.54 | 929.34
m2 = 0.01042 | 3.83e-06 | 3.41e-06 | 3.04e-06 | 2.72e-06 | 2.46e-06 | 946.61 | 942.38 | 938.2 | 933.97 | 929.79
m2 = 0.04232 | 4.04e-06 | 3.59e-06 | 3.19e-06 | 2.86e-06 | 2.58e-06 | 948.77 | 944.56 | 940.39 | 936.24 | 932.07
m2 = 0.05605 | 4.13e-06 | 3.67e-06 | 3.25e-06 | 2.92e-06 | 2.63e-06 | 949.67 | 945.49 | 941.34 | 937.18 | 933.03
m2 = 0.08536 | 4.34e-06 | 3.83e-06 | 3.4e-06 | 3.05e-06 | 2.74e-06 | 951.77 | 947.59 | 943.45 | 939.13 | 934.99
m2 = 0.1022 | 4.47e-06 | 3.95e-06 | 3.49e-06 | 3.13e-06 | 2.81e-06 | 953.01 | 948.87 | 944.7 | 940.52 | 936.21
m2 = 0.1314 | 4.7e-06 | 4.15e-06 | 3.67e-06 | 3.28e-06 | 2.95e-06 | 954.97 | 950.79 | 946.62 | 942.51 | 938.24
m2 = 0.1539 | 4.89e-06 | 4.31e-06 | 3.8e-06 | 3.39e-06 | 3.05e-06 | 956.57 | 952.41 | 948.18 | 943.99 | 939.85
m2 = 0.1613 | 4.95e-06 | 4.35e-06 | 3.85e-06 | 3.43e-06 | 3.09e-06 | 957.09 | 952.96 | 948.73 | 944.54 | 940.37
m2 = 0.1719 | 5.03e-06 | 4.42e-06 | 3.9e-06 | 3.48e-06 | 3.13e-06 | 957.84 | 953.69 | 949.44 | 945.4 | 941.17
m2 = 0.1998 | 5.26e-06 | 4.63e-06 | 4.08e-06 | 3.64e-06 | 3.27e-06 | 959.8 | 955.68 | 951.58 | 947.31 | 943.19
m2 = 0.2219 | 5.46e-06 | 4.8e-06 | 4.24e-06 | 3.77e-06 | 3.39e-06 | 961.27 | 957.26 | 953.04 | 948.77 | 944.71
m2 = 0.2578 | 5.79e-06 | 5.1e-06 | 4.5e-06 | 4e-06 | 3.58e-06 | 964 | 959.75 | 955.68 | 951.4 | 947.13
m2 = 0.3546 | 6.92e-06 | 6.01e-06 | 5.32e-06 | 4.71e-06 | 4.2e-06 | 970.82 | 966.61 | 962.4 | 958.22 | 953.99
